Results as given in BigSolDB 2.1.

CCCCCCCCCCCCCCCCCCCCCCCCCCCCO
solubility (mole fraction)
Settings | 298.2 K | 303.2 K | 308.2 K | 313.2 K | 318.2 K | 323.2 K | 328.2 K | 333.2 K
in n-hexanol | 0.000906 | 0.00126 | 0.00238 | 0.00436 | 0.00758 | 0.0148 | 0.0291 | 0.0602
in n-pentanol | 0.000644 | 0.00115 | 0.00222 | 0.00375 | 0.00658 | 0.013 | 0.026 | –
in toluene | 0.0014 | 0.00246 | 0.00402 | 0.00744 | 0.0137 | 0.0291 | 0.0588 | –
